Data from US7144893B2, “4-aryl quinols and analogs thereof as therapeutic agents” (Cancer Research Technology Limited, priority 2001, dated 2006).
pIC50: −log10 of the molar value. Converted amounts (≈) assume the structure as drawn.

Experiments:
A549 lung adenocarcinoma = assay: Growth inhibitory assay (MTT, 72 hr); assay type: cell-based; conditions: Homo sapiens, 72 hr exposure
Protocol: (§1) Compounds were prepared as 10 mM top stocks, dissolved in DMSO, and stored at 4° C., protected from light, for a maximum period of 4 weeks. Human derived cell lines (HCT 116, HT29 colon carcinoma; MCF-7 (ER+), MDA 468 (ER−) breast carcinoma; A549 lung adenocarcinoma) were routinely cultivated at 37° C. in an atmosphere of 5% CO2 in RPMI 1640 medium supplemented with 2 mM L-glutamine and 10% fetal calf serum and subcultured twice weekly to maintain continuous logarithmic growth. Cells were seeded into 96-well microtiter plates at a density of 5×10^3 per well and allowed 24 hr to adhere before drugs were introduced (final concentration 0.1 nM–100 μM, n=8). Serial drug dilutions were prepared in medium immediately prior to each assay. At the time of drug addition and following 72 hr exposure, MTT was added to each well (final concentration 400 µg/mL). Incubation at 37° C. for 4 hr allowed reduction of MTT by mitochondrial dehydrogenase to an insoluble formazan product. Well contents were aspirated and formazan solubilized by addition of DMSO:glycine buffer (pH 10.5) (4:1). Absorbance was measured using an Anthos Labtec systems plate reader at 550 nm, and used as a measure of cell viability; thus cell growth or drug toxicity was determined.

HCT 116 colon carcinoma = assay: Growth inhibitory assay (MTT, 72 hr); assay type: cell-based; conditions: Homo sapiens, 72 hr exposure
Protocol: as §1

HT29 colon carcinoma = assay: Growth inhibitory assay (MTT, 72 hr); assay type: cell-based; conditions: Homo sapiens, HT-29, 72 hr exposure
Protocol: as §1

[1] = system: MCF-7 (ER+) breast carcinoma; assay: Growth inhibitory assay (MTT, 72 hr); assay type: cell-based; conditions: Homo sapiens, MCF7, 72 hr exposure
Protocol: as §1

[2] = system: MDA 468 (ER−) breast carcinoma; assay: Growth inhibitory assay (MTT, 72 hr); assay type: cell-based; conditions: Homo sapiens, 72 hr exposure
Protocol: as §1

[3] = system: human renal tumor xenograft RXF 944LX; assay: In vivo antitumor activity, renal tumor xenograft; conditions: for DT (tumor doubling time) / T/C (optimal test/control) / GD (growth delay): 15 mg/kg i.p.
Protocol: Animals. Six to eight weeks old outbred nude mice of NMRI genetic background were used for all experiments. The animals were bred and raised in animal facilities in Freiburg, Germany and housed in Macrolon™ cages. The mice were kept under laminar air flow on natural day light cycles. Diet (Altromin, Lage, Germany) and water were provided ad libitum and room temperature (25+/−2° C.) as well as humidity (60+/−10%) were maintained. The experiments were conducted essentially according to the UKCCCR guidelines under a project license approved by the German Federal Government (Regierungspräsidium Freiburg). The gender of the mice was chosen according to the gender of the patients from which the tumors were originally derived.
Tumors and Data Evaluation. For the experiments, three subcutaneously (s.c.) growing renal human tumor xenograft models from the Freiburg tumor panel were selected (RXF 944LX, RXF 393, and RXF 1220). All renal cell carcinomas were hypernephromas. For the experiments, the latter were engrafted from tumors in serial passage growing s.c. in nude mice. Fragments of approximately 25 mg were implanted s.c. in both flanks of the animals. When the tumors were clearly palpable and had reached a volume of 100–200 mm^3, animals (6–12 tumors) were randomly allocated into treatment groups. Tumor growth was followed twice weekly by serial caliper measurement. Tumor volumes were calculated using the formula length×width^2/2, where length (a) is the largest dimension and width (b) the smallest dimension perpendicular to the length (a×b^2/2) (see, e.g., Geran et al., 1972).
Data evaluation was performed using software by plotting relative tumor volume against time. Relative tumor volumes were calculated for each single tumor by dividing the tumor volume on day X by the tumor volume on day 0 at the time of randomization. Tumor doubling time of test and control groups was defined as the period required to double the initial tumor volume (200%). Growth curves were analyzed in terms of maximal tumor inhibition (treated/control, T/C, calculated as median tumor weight of treated animals divided by median tumor weight of control animals times 100), growth delay (the difference in days to double the initial tumor volume of the test minus the control groups). Median relative tumor volumes of each treatment group were compared to those of the control group. Human tumors growing s.c. in nude mice were treated intraperitoneally (i.p.) with doses of 15 and 10 mg/kg drug either on days 1 and 2; on days 1 and 5; on days 1 and 8; or on days 1, 5 and 8.
The drug doses and treatment schedules used, were determined as being tolerated in non-tumor bearing nude mice prior to initiation of tumor experiments.

[4] = system: Mycobacterium tuberculosis H37Rv (ATCC 27294); assay: Microplate Alamar Blue Assay (MABA), TAACF primary screening; assay type: cell-based; conditions: lowest concentration effecting a reduction in fluorescence of 90% relative to controls
Excerpt: Compounds were submitted to the Tuberculosis Antimicrobial Acquisition and Coordinating Facility (TAACF) for testing as antimycobacterial drugs.
Compounds were subjected to in vitro evaluation for antimycobacterial activity.
See, for example, Collins et al., 1997.

[5] = system: MCF-7 wt and MCF-7/adr (breast cancer); assay: Potency in MCF-7 wt and MCF-7/adr; assay type: cell-based
[6] = system: ZR^75 clones expressing different levels of epidermal growth factor receptor (EGFR); assay: Activity against ZR75 clones with different EGFR levels; assay type: cell-based
p53 = p53 regulation in cancer cells; assay type: cell-based; conditions: MCF-7 (breast cancer) and HCT 116 (colon cancer)
[7] = system: human renal tumor xenograft RXF 1220; assay: In vivo antitumor activity, renal tumor xenograft; conditions: 15 mg/kg i.p.

For O=C1C=CC(O)(c2nc3ccccc3s2)C=C1 [Q05, 4-(Benzothiazol-2-yl)-4-hydroxy-2,5-cyclohexadien-1-one], the pIC50 (A549 lung adenocarcinoma) was 5.63, the pIC50 (HCT 116 colon carcinoma) was 7.40 and the pIC50 (HT29 colon carcinoma) was 6.42. The pIC50 [1] was 6.46, the pIC50 [2] was 6.10 and the “DT (tumor doubling time)” value ([3]; days 1, 2) was 4.1. For the same molecule, the “T/C (optimal test/control)” value ([3]; days 1, 2) was 27, the “GD (growth delay)” value ([3]; days 1, 2, difference in days to double initial tumor volume) was 2.9 and the “DT (tumor doubling time)” value ([3]; days 1, 8) was 4.2. For the same molecule, the “T/C (optimal test/control)” value ([3]; days 1, 8) was 43, the “GD (growth delay)” value ([3]; days 1, 8, difference in days to double initial tumor volume) was 2.3 and the “toxic death in treatment group” value ([3]; FIG. 2, six animals per group) was 1/6. The T/C ([3]; FIG. 2, six animals per group, 11–12 tumors per group) was 43%, the T/C ([3]; FIG. 3, three animals per group) was 27% and the MIC [4] was 0.78 µg/mL (≈ 3.21 µM). The “relative potency MCF-7 wt and MCF-7/adr” value [5] was “equi-potent”, the “relative activity against ZR75 clones” value [6] was “equi-active” and the “effect on p53” value (p53) was “up-regulates p53”. The “DT (tumor doubling time)” value ([7]; days 1, 5, 8) was 5.3, the “T/C (optimal test/control)” value ([7]; days 1, 5, 8) was 66 and the “GD (growth delay)” value ([7]; days 1, 5, 8, difference in days to double initial tumor volume) was 2.2. For the same molecule, the “BWC (maximal body weight change)” value ([7]; days 1, 5, 8, model induces cachexia) was −20.
